A short description of series [1]: Aqueous solubility of avanafil by HPLC at a range of pH values. It is filed as physicochemical. To be noted: thermodynamic from solid. As for the experimental part: A high performance liquid chromatography (HPLC) procedure was used to evaluate the aqueous solubility of avanafil (obtained from Tanabe Seiyaku Co., LTD, purity, 97.0% to 103% with an observed purity of 98.89%; particle diameter, 10-20 microns with median observed particle diameter of 18.47 microns) at a range of pH values. The HPLC conditions were as follows: system, HP Model 1100; analytical column, Supelco Kromasil C8, 4.6 mm×250 mm, 5 μm particle size; assay injection volume, 20 μl; stock stability injection volume, 0.5 μl; needle wash volume, 91 μl; mobile phase flow rate, 1.00 ml/minute; column temperature, 30° C.; detection wavelength 246 nm; flow cell path length, 10 mm; range step 2.00 nm; threshold, 1.00 mAU; stop time, 30 minutes. Solutions 1, 2, 3, 6, 7, 8, 11, and 12 were buffered to pH values of 0.99, 2.00, 3.00, 6.00, 7.00, 8.00, 11.0, and 12.0, respectively, using a phosphate buffer, 0.1M KH2PO4. Solutions 4 and 5 were buffered to pH values of 4.00 and 5.00, respectively, using a sodium acetate buffer, 0.1M NaOAc, while solutions 9 and 10 were respectively buffered to pH values of 9.00 and 10.00 using a sodium carbonate buffer, 0.1M Na2CO3.

For series [2] the following is noted: cited from earlier work.
A short description of series [3]: Aqueous solubility of avanafil by HPLC at a range of pH values. It is filed as physicochemical. To be noted: sodium carbonate buffer, thermodynamic from solid, Solution 10, 0.1N Na2CO3, pH 10.0.

Usually solubility stands for the concentration that dissolves in the medium under given conditions.

Structures are written as SMILES. Converted amounts (≈) assume the structure as drawn. Where two headings read alike, the source gives them in different places.

`COc1ccc(CNc2nc(N3CCC[C@H]3CO)ncc2C(=O)NCc2ncccn2)cc1Cl` [avanafil, 4-[(3-chloro-4-methoxybenzyl)amino]-2-[2-(hydroxymethyl)-1-pyrrolidinyl]-N-(2-pyrimidinylmethyl)-5-pyrimidinecarboxamide]: the solubility in series [1] (phosphate buffer, aqueous buffer, Solution 1, 0.1M KH2PO4, pH 0.999) was greater than 199000 µg/mL; in series [1] (phosphate buffer, aqueous buffer, Solution 2, 0.1M KH2PO4, pH 2.00) it was 35000 µg/mL (≈ 72300 µM); in series [1] (phosphate buffer, aqueous buffer, Solution 3, 0.1M KH2PO4, pH 3.00) it was 1700 µg/mL (≈ 3510 µM); in series [1] (phosphate buffer, aqueous buffer, Solution 6, 0.1M KH2PO4, pH 6.00) it was 1.28 µg/mL (≈ 2.64 µM); in series [1] (phosphate buffer, aqueous buffer, Solution 7, 0.1M KH2PO4, pH 7.00), 0.233 µg/mL (≈ 0.481 µM); in series [1] (phosphate buffer, aqueous buffer, Solution 8, 0.1M KH2PO4, pH 8.00), 0.052 µg/mL (≈ 0.107 µM). For the same compound, the solubility in series [1] (phosphate buffer, aqueous buffer, Solution 11, 0.1M KH2PO4, pH 11.0) is 0.0568 µg/mL (≈ 0.117 µM); in series [1] (phosphate buffer, aqueous buffer, Solution 12, 0.1M KH2PO4, pH 12.0) it was less than 0.05 µg/mL; in series [1] (sodium acetate buffer, aqueous buffer, Solution 4, 0.1M NaOAc, pH 4.00), 344 µg/mL (≈ 711 µM); in series [1] (sodium acetate buffer, aqueous buffer, Solution 5, 0.1M NaOAc, pH 5.00) it was 19.5 µg/mL (≈ 40.3 µM); in series [1] (sodium carbonate buffer, aqueous buffer, Solution 9, 0.1M Na2CO3, pH 9.00), less than 0.05 µg/mL; in series [1] (water, ASTM Type II H2O, no buffer), 0.139 µg/mL (≈ 0.287 µM). Moreover, in series [3], the solubility is less than 0.05 µg/mL. The “mean reduction in Cmax” value in series [2] (100 mg with a high fat meal) was 24%; in series [2] (200 mg with a high fat meal), 39%. Besides, in series [2] (result in words, mainly CYP3A4, minor extent CYP2C isoform), the route of clearance entry is “cleared predominantly by hepatic metabolism”. Besides, in series [2] (taken with a high fat meal), the “decrease in AUC” value is roughly 3.8%.
